From patent US8268845B2, “Tetrahydro- and dihydroquinazolinones” (Merck Patent GmbH, priority 2005, dated 2012)

Compound	melting point
O=c1[nH]c(N2CCNCC2)nc2c1CCCC2	121 °C
CN1CCN(c2nc3c(c(=O)[nH]2)CCCC3)CC1	210 °C
O=c1[nH]c(-c2ccc(Cl)cc2)nc2c1C=CCC2 [formula 6b, 2-(p-Chlorophenyl)-7,8-dihydroquinazolin-4(3H)-one]	> 250 °C
O=c1[nH]c(-c2ccccc2F)nc2c1C=CCC2 [formula 6d, 2-(o-Fluorophenyl)-7,8-dihydroquinazolin-4(3H)-one]	191 °C
CSc1nc2c(c(=O)[nH]1)C=CCC2 [formula 6g, 2-Methylthio-7,8-dihydroquinazolin-4(3H)-one]	214 °C

Other lines, results leading:

melting point	Compound
224 °C	O=c1[nH]c(-c2ccccc2)nc2c1CCCC2 [formula 7a, 2-Phenyl-5,6,7,8-tetrahydroquinazolin-4(3H)-one]
255 °C	O=c1[nH]c(-c2ccc(Cl)cc2)nc2c1CCCC2 [formula 7b, 2-(p-Chlorophenyl)-5,6,7,8-tetrahydroquinazolin-4(3H)-one]
170 °C	O=c1[nH]c(-c2ccccc2F)nc2c1CCCC2 [formula 7d, 2-(o-Fluorophenyl)-5,6,7,8-tetrahydroquinazolin-4(3H)-one]
237 °C	CC1CCc2nc(-c3ccccc3)[nH]c(=O)c2C1 (centres unmarked) [formula 10a, 6-Methyl-2-phenyl-5,6,7,8-tetrahydroquinazolin-4(3H)-one]
221 °C	CCC1CCc2nc(-c3ccccc3)[nH]c(=O)c2C1 (centres unmarked) [formula 10b, 6-Ethyl-2-phenyl-5,6,7,8-tetrahydroquinazolin-4(3H)-one]
218 °C	CC1=Cc2c(nc(-c3ccccc3)[nH]c2=O)CC1 [formula 11a, 6-Methyl-2-phenyl-7,8-dihydroquinazolin-4(3H)-one]
198 °C	CCC1=Cc2c(nc(-c3ccccc3)[nH]c2=O)CC1 [formula 11b, 6-Ethyl-2-phenyl-7,8-dihydroquinazolin-4(3H)-one]
> 250 °C	O=c1[nH]c(N2CCN(Cc3ccccc3)CC2)nc2c1CC(S(=O)(=O)c1ccccc1)CC2 (centres unmarked) [formula 13b, 2-(4-benzylpiperazin-1-yl)-6-Benzenesulfonyl-5,6,7,8-tetrahydroquinazolin-4(3H)-one]
> 250 °C	CN1CCN(c2nc3c(c(=O)[nH]2)CC(S(=O)(=O)c2ccccc2)CC3)CC1 (centres unmarked) [formula 13c, 6-Benzenesulfonyl-2-(4-methylpiperazin-1-yl)-5,6,7,8-tetrahydroquinazolin-4(3H)-one]
